From patent US9302999B2, “Substituted triazoles as herbicides” (E. I. DU PONT DE NEMOURS AND COMPANY, priority 2012, dated 2016)
Like-named read-outs stand apart in the source and are kept apart here.

Tests used:
Type in all cases: in vivo
[1] = system: foxtail, giant (giant foxtail, Setaria faberii); test: Test A pre-/postemergence: foxtail, giant; details: Setaria faberi, 240 h; for pest or weed control at 125 g/ha: 125 g ai/ha; for pest or weed control at 500 g/ha: 500 g ai/ha
In short: (§1)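 Pre: directed soil spray after planting in loam + sand. Post: same formulation (non-phytotoxic solvent + surfactant) on 1–2-leaf plants, 2–10 cm. Greenhouse ~10 d; visual injury 0–100 vs untreated.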

[2] = system: wheat (Triticum aestivum); test: Test A pre-/postemergence: wheat; details: for plant injury at 125 g/ha / plant injury at 500 g/ha: Triticum aestivum, 240 h; for plant injury at 125 g/ha: 125 g ai/ha; for plant injury at 500 g/ha: 500 g ai/ha; for Wheat plant response rating: 1000 g ai/ha
In short: as §1

[3] = system: crabgrass, large (large crabgrass, Digitaria sanguinalis); test: Test A pre-/postemergence: crabgrass, large; details: for pest or weed control at 125 g/ha / pest or weed control at 500 g/ha: Digitaria sanguinalis, 240 h; for pest or weed control at 125 g/ha: 125 g ai/ha; for pest or weed control at 500 g/ha: 500 g ai/ha; for Crabgrass, Large plant response rating: 1000 g ai/ha
In short: as §1

corn (Zea mays) = test: Test A pre-/postemergence: corn; details: for plant injury at 125 g/ha / plant injury at 500 g/ha / Corn plant response rating (crop injury, 0 = no effect, 100 = complete kill) at 125 g/ha / Corn plant response rating (crop injury, 0 = no effect, 100 = complete kill) at 500 g/ha: Zea mays, 240 h; for plant injury at 125 g/ha / plant injury at 500 g/ha: post-emergence, read-out: Corn plant response rating; for plant injury at 125 g/ha / Corn plant response rating (crop injury, 0 = no effect, 100 = complete kill) at 125 g/ha: 125 g ai/ha; for plant injury at 500 g/ha / Corn plant response rating (crop injury, 0 = no effect, 100 = complete kill) at 500 g/ha: 500 g ai/ha; for Corn plant response rating (crop injury, 0 = no effect, 100 = complete kill) at 125 g/ha / Corn plant response rating (crop injury, 0 = no effect, 100 = complete kill) at 500 g/ha: pre-emergence; for Corn plant response rating: 1000 g ai/ha
In short: as §1

[4] = system: ryegrass, Italian (Italian ryegrass, Lolium multiflorum); test: Test C pre-/postemergence: ryegrass, Italian
Source text: (§2) Seeds of plant species selected from blackgrass (Alopecurus myosuroides), bromegrass, downy (downy bromegrass, Bromus tectorum), foxtail, green (green foxtail, Setaria viridis), ryegrass, Italian (Italian ryegrass, Lolium multiflorum), winter wheat (Triticum aestivum), wild oat (Avena fatua), galium (catchweed bedstraw, Galium aparine), bermudagrass (Cynodon dactylon), surinam grass (Brachiaria decumbens), cocklebur (common cocklebur, Xanthium strumarium), corn (Zea mays), large crabgrass (Digitaria sanguinalis), woolly cupgrass (Eriochloa villosa), foxtail, giant (giant foxtail, Setaria faberii), goosegrass (Eleusine indica), johnsongrass (Sorghum halepense), kochia (Kochia scoparia), lambsquarters (Chenopodium album), morningglory (Ipomoea coccinea), nightshade (eastern black nightshade, Solanum ptycanthum), nutsedge, yellow (yellow nutsedge, Cyperus esculentus), pigweed (Amaranthus retroflexus), ragweed (common ragweed, Ambrosia elation), soybean (Glycine max), common (oilseed) sunflower (Helianthus annuus), Russian thistle (Salsola kali) and velvetleaf (Abutilon theophrasti) were planted into a blend of loam soil and sand and treated preemergence with test chemicals formulated in a non-phytotoxic solvent mixture which included a surfactant.
(§3) At the same time, plants selected from these crop and weed species and also barley (winter barley, Hordeum vulgare), canarygrass (Phalaris minor), chickweed (common chickweed, Stellaria media) windgrass (Apera spica-venti) and deadnettle (henbit deadnettle, Lamium amplexicaule) were planted in pots containing Redi-Earth® planting medium (Scotts Company, 14111 Scottslawn Road, Marysville, Ohio 43041) comprising spaghnum peat moss, vermiculite, wetting agent and starter nutrients and treated with postemergence applications of test chemicals formulated in the same manner. Plants ranged in height from 2 to 18 cm (1- to 4-leaf stage) for postemergence treatments.
(§4) Treated plants and controls were maintained in a greenhouse for 13 to 15 days, after which time all species were compared to controls and visually evaluated. Plant response ratings, summarized in Table C, are based on a scale of 0 to 100 where 0 is no effect and 100 is complete control. A dash (-) response means no test result.

[5] = system: johnsongrass (Sorghum halepense); test: Test C pre-/postemergence: johnsongrass
Source text: as §2, §3, §4

[6] = system: lambsquarters (Chenopodium album); test: Test C pre-/postemergence: lambsquarters
Source text: as §2, §3, §4

[7] = system: velvetleaf (Abutilon theophrasti); test: Test C pre-/postemergence: velvetleaf
Source text: as §2, §3, §4

[8] = post-emergence, Postemergence, 0 to 100 scale, 0 is no effect, 100 is complete control, read-out: Foxtail, Giant plant response rating
[9] = post-emergence, Postemergence, visual rating on 0 to 100 scale (0 no effect, 100 complete control), approximately ten days, read-out: Foxtail, Giant plant response rating
[10] = pre-emergence, Preemergence, 0 to 100 scale where 0 is no effect and 100 is complete control, read-out: Plant response rating, Foxtail, Giant
[11] = pre-emergence, Preemergence, 0 to 100 scale (0 no effect, 100 complete control), read-out: Plant response rating, Foxtail, Giant
[12] = post-emergence, Postemergence, 0 to 100 scale, 0 is no effect, 100 is complete control, read-out: Wheat plant response rating
[13] = post-emergence, Postemergence, visual rating on 0 to 100 scale (0 no effect, 100 complete control), approximately ten days, read-out: Wheat plant response rating
[14] = pre-emergence, Preemergence, 0 to 100 scale where 0 is no effect and 100 is complete control, read-out: Plant response rating, Wheat
[15] = pre-emergence, Preemergence, 0 to 100 scale (0 no effect, 100 complete control), read-out: Plant response rating, Wheat
[16] = post-emergence, Postemergence, 0 to 100 scale, 0 is no effect, 100 is complete control, read-out: Crabgrass, Large plant response rating
[17] = post-emergence, Postemergence, visual rating on 0 to 100 scale (0 no effect, 100 complete control), approximately ten days, read-out: Crabgrass, Large plant response rating
[18] = pre-emergence, Preemergence, 0 to 100 scale where 0 is no effect and 100 is complete control, read-out: Plant response rating, Crabgrass, Large
[19] = pre-emergence, Preemergence, 0 to 100 scale (0 no effect, 100 complete control), read-out: Plant response rating, Crabgrass, Large
[20] = Postemergence, 0 to 100 scale, 0 is no effect, 100 is complete control
[21] = Postemergence, visual rating on 0 to 100 scale (0 no effect, 100 complete control), approximately ten days
[22] = Preemergence, 0 to 100 scale where 0 is no effect and 100 is complete control
[23] = Preemergence, 0 to 100 scale (0 no effect, 100 complete control)
[24] = Preemergence, 0 to 100 scale, 0 is no effect, 100 is complete control
[25] = Postemergence, 31 g ai/ha, scale 0 to 100 (0 no effect, 100 complete control)
[26] = Postemergence, 62 g ai/ha, scale 0 to 100 (0 no effect, 100 complete control)
[27] = Postemergence, 125 g ai/ha, scale 0 to 100, 0 no effect, 100 complete control
[28] = Postemergence, 250 g ai/ha, scale 0 to 100
[29] = Preemergence, 31 g ai/ha, scale of 0 to 100, 0 is no effect, 100 is complete control
[30] = Preemergence, 62 g ai/ha, scale of 0 to 100, 0 is no effect, 100 is complete control
[31] = Preemergence, 125 g ai/ha, scale 0 to 100, 0 no effect, 100 complete control
[32] = Preemergence, 250 g ai/ha, scale 0 to 100, 0 no effect, 100 complete control

COCc1nn(-c2ccc(C(F)(F)F)cc2)nc1Oc1cccc(OC(F)(F)F)c1 [Compound 115, 4-(methoxymethyl)-5-[3-(trifluoromethoxy)phenoxy]-2-[4-(trifluoromethyl)phenyl]-2H-1,2,3-triazole]
pest or weed control at 125 g/ha [1, 8]: 30%
pest or weed control at 500 g/ha [1, 9]: 60%
pest or weed control at 125 g/ha [1, 10]: 60%
pest or weed control at 500 g/ha [1, 11]: 100%
plant injury at 125 g/ha [2, 12]: 10%
plant injury at 500 g/ha [2, 13]: 20%
plant injury at 125 g/ha [2, 14]: 0%
plant injury at 500 g/ha [2, 15]: 10%
pest or weed control at 125 g/ha [3, 16]: 50%
pest or weed control at 500 g/ha [3, 17]: 80%
pest or weed control at 125 g/ha [3, 18]: 80%
pest or weed control at 500 g/ha [3, 19]: 100%
plant injury at 125 g/ha (corn (Zea mays); [20]): 10%
plant injury at 500 g/ha (corn (Zea mays); [21]): 30%
Corn plant response rating (crop injury, 0 = no effect, 100 = complete kill) at 125 g/ha (corn (Zea mays); [22]): 0%
Corn plant response rating (crop injury, 0 = no effect, 100 = complete kill) at 500 g/ha (corn (Zea mays); [23]): 10%

FCc1nn(-c2ccc(C(F)(F)F)cc2)nc1Oc1cccc(OC(F)(F)F)c1 [Compound 116, 4-(fluoromethyl)-5-[3-(trifluoromethoxy)phenoxy]-2-[4-(trifluoromethyl)phenyl]-2H-1,2,3-triazole]
pest or weed control at 125 g/ha [1, 8]: 30%
pest or weed control at 500 g/ha [1, 9]: 50%
pest or weed control at 125 g/ha [1, 10]: 60%
pest or weed control at 500 g/ha [1, 11]: 90%
plant injury at 125 g/ha [2, 12]: 10%
plant injury at 500 g/ha [2, 13]: 10%
plant injury at 125 g/ha [2, 14]: 0%
plant injury at 500 g/ha [2, 15]: 10%
pest or weed control at 125 g/ha [3, 16]: 40%
pest or weed control at 500 g/ha [3, 17]: 80%
pest or weed control at 125 g/ha [3, 18]: 70%
pest or weed control at 500 g/ha [3, 19]: 100%
plant injury at 125 g/ha (corn (Zea mays); [20]): 20%
plant injury at 500 g/ha (corn (Zea mays); [21]): 30%
Corn plant response rating (crop injury, 0 = no effect, 100 = complete kill) at 125 g/ha (corn (Zea mays); [22]): 0%
Corn plant response rating (crop injury, 0 = no effect, 100 = complete kill) at 500 g/ha (corn (Zea mays); [23]): 10%

Cc1nn(-c2ccc(C(F)(F)F)cc2)nc1Oc1csc(C(F)(F)F)c1 [Compound 1, 4-methyl-2-[4-(trifluoromethyl)phenyl]-5-[[5-(trifluoromethyl)-3-thienyl]oxy]-2H-1,2,3-triazole]
pest or weed control at 125 g/ha [1, 8]: 50%
pest or weed control at 500 g/ha [1, 9]: 70%
pest or weed control at 125 g/ha [1, 11]: 60%
pest or weed control at 500 g/ha ([1]; pre-emergence, Preemergence, 0 to 100 scale, 0 is no effect, 100 is complete control, read-out: Plant response rating, Foxtail, Giant): 100%
plant injury at 125 g/ha [2, 12]: 10%
plant injury at 500 g/ha [2, 13]: 20%
plant injury at 125 g/ha [2, 15]: 0%
plant injury at 500 g/ha ([2]; pre-emergence, Preemergence, 0 to 100 scale, 0 is no effect, 100 is complete control, read-out: Plant response rating, Wheat): 0%
pest or weed control at 125 g/ha [3, 16]: 70%
pest or weed control at 500 g/ha [3, 17]: 90%
pest or weed control at 125 g/ha [3, 19]: 70%
pest or weed control at 500 g/ha ([3]; pre-emergence, Preemergence, 0 to 100 scale, 0 is no effect, 100 is complete control, read-out: Plant response rating, Crabgrass, Large): 100%
plant injury at 125 g/ha (corn (Zea mays); [20]): 20%
plant injury at 500 g/ha (corn (Zea mays); [21]): 20%
Corn plant response rating (crop injury, 0 = no effect, 100 = complete kill) at 125 g/ha (corn (Zea mays); [23]): 0%
Corn plant response rating (crop injury, 0 = no effect, 100 = complete kill) at 500 g/ha (corn (Zea mays); [24]): 0%

Cc1nn(-c2ccc(C(F)(F)F)cn2)nc1Cc1cccc(C(F)(F)F)c1 [Compound 106]
Wheat plant response rating [2, 21]: 10
Wheat plant response rating [2, 24]: 0
Plant response rating, Ryegrass, Italian [4, 25]: 5
Plant response rating, Ryegrass, Italian [4, 26]: 5
Plant response rating, Ryegrass, Italian [4, 27]: 20
Plant response rating, Ryegrass, Italian [4, 28]: 30
Plant response rating, Ryegrass, Italian [4, 29]: 5
Plant response rating, Ryegrass, Italian [4, 30]: 20
Plant response rating, Ryegrass, Italian [4, 31]: 45
Plant response rating, Ryegrass, Italian [4, 32]: 50
Plant response rating, Johnsongrass [5, 25]: 0
Plant response rating, Johnsongrass [5, 26]: 15
Plant response rating, Johnsongrass [5, 27]: 40
Plant response rating, Johnsongrass [5, 28]: 55
Plant response rating, Johnsongrass [5, 29]: 0
Plant response rating, Johnsongrass [5, 30]: 20
Plant response rating, Johnsongrass [5, 31]: 75
Plant response rating, Johnsongrass [5, 32]: 85
Plant response rating, Lambsquarters [6, 25]: 80
Plant response rating, Lambsquarters [6, 26]: 100
Plant response rating, Lambsquarters [6, 27]: 100
Plant response rating, Lambsquarters [6, 28]: 100
Plant response rating, Lambsquarters [6, 29]: 85
Plant response rating, Lambsquarters [6, 30]: 100
Plant response rating, Lambsquarters [6, 31]: 100
Plant response rating, Lambsquarters [6, 32]: 100
Crabgrass, Large plant response rating [3, 21]: 80
Crabgrass, Large plant response rating [3, 24]: 90
Plant response rating, Velvetleaf [7, 25]: 5
Plant response rating, Velvetleaf [7, 26]: 45
Plant response rating, Velvetleaf [7, 27]: 65
Plant response rating, Velvetleaf [7, 28]: 65
Plant response rating, Velvetleaf [7, 29]: 0
Plant response rating, Velvetleaf [7, 30]: 0
Plant response rating, Velvetleaf [7, 31]: 0
Plant response rating, Velvetleaf [7, 32]: 10
Corn plant response rating (corn (Zea mays); [21]): 10
Corn plant response rating (corn (Zea mays); [24]): 10
